Test results from publication PMC9031804, “The Peptide-Drug Conjugate TH1902: A New Sortilin Receptor-Mediated Cancer Therapeutic against Ovarian and Endometrial Cancers” (Cancers, 2022).

What was measured:
[1] = tested on: A2780 ovarian cancer xenografts; test: A2780 ovarian cancer xenograft tumor growth; type: in vivo, human tumor in female athymic nude mice; settings: for Tumor progression, Size Increase (x-Fold Day-0): vehicle group endpoint, n = 5 mice/group
From the text: (§1) Animals were obtained from Charles River Laboratories, Inc. and allowed to acclimate for 5 days before experiments. Female CD-1 nude mice (Crl:CD1-Foxn1^nu, 4–6 weeks old; ES-2) or athymic nude mice (Crl:NU(NCr)-Foxn1^nu, 4–6 weeks old; SKOV3, A2780, AN3-CA) were used for the xenograft tumor models. Mice were maintained in a pathogen-free environment and handled in accordance with the Guidelines of the Canadian Council on Animal Care. Animal protocols were approved by the Institutional Animal Care and Use Committee of Université du Québec à Montréal (0620-C1R1-897-0621).
(§2) Tumor xenografts were established by subcutaneous inoculation of 5 × 10^6 cells (ES-2) or 7 × 10^6 cells (SKOV3) in 150 µL of HBSS; other xenografts were established by subcutaneous inoculation of 5 × 10^6 cells (A2780) or 2 × 10^6 cells (AN3-CA) in 150 µL of HBSS/Matrigel (50:50). All cells were injected into the right flanks of immunodeficient mice under light isoflurane anesthesia. The injection schedules and doses of injected substances are detailed in the figures. Briefly, when palpable ES-2, SKOV3 or AN3-CA tumors reached a volume of ~100 mm^3, mice were treated weekly with either vehicle, docetaxel (3.75 or 15 mg/kg) or TH1902 (8.75 or 35 mg/kg) at equivalent docetaxel amounts via intravenous (IV) tail vein injection. Note that three cycles of 15 mg/kg docetaxel is the maximum tolerated dose in mice and that 35 mg/kg TH1902 contains the same quantity of docetaxel (bis-linked to the peptide). In A2780 xenografts, when palpable tumors reached a volume of ~250 mm^3, mice were treated with either vehicle, paclitaxel (10 mg/kg, IV), carboplatin (40 mg/kg, intraperitoneal (IP)), docetaxel (10 mg/kg, IV) or TH1902 (23 mg/kg, IV) bi-weekly as single agents or once on Day-0 as combinations with carboplatin. For combination treatments, both taxanes and TH1902 were injected 1 h following carboplatin administrations at the doses previously described. Injectable solutions were prepared as follows: TH1902 was solubilized at 10 mg/mL in 10% Tween-80 in D5W (pH 4.3, w/v) then further diluted with D5W; docetaxel was solubilized at 25 mg/mL in ethanol and Tween-80 (50/50, v/v) then further diluted with D5W; paclitaxel was solubilized at 25 mg/mL in ethanol and Cremophor EL (50/50, v/v) then further diluted in saline; carboplatin was solubilized at 50 mg/mL in water then further diluted in a solution of 30% PEG400 and 5% Tween-80 in D5W (w/v); vehicle composition and preparation mimicked highest dose of TH1902 preparation. Tumor growth was monitored by two-dimensional measurements taken with an electronic caliper and tumor volume was calculated according to the following formula: tumor volume (mm^3) = π/6 × length × width^2. Data are expressed as mean ± SEM and were analyzed using GraphPad Prism software.
Figure 8 Effects of TH1902 and carboplatin combinations on A2780 ovarian cancer xenografts. A2780 cells were subcutaneously implanted in the flanks of athymic nude mice. Tumor volume measurements following bi-weekly administrations of (A) vehicle, docetaxel, TH1902, paclitaxel or carboplatin as single agents, or (B) administered once in combination using the same dosage as described in the methods section. Colored dots below indicate drug treatments for all groups. Data are represented as mean ± SEM (n = 5 mice/group).

[2] = ref [38]; cited from earlier work
From the text: Taxanes, mainly paclitaxel and docetaxel, are well-known microtubule stabilizers used in various cancer including ovarian and endometrial cancer first-line therapies in the last thirty years. […] Here, the new chemical entity TH1902 is distinct from the docetaxel molecule as it selectively exploits SORT1’s internalization properties to trigger cell apoptosis in ES-2 and ...

SKOV3 cells = test: Cell proliferation, MTT assay, SKOV3; type: cell-based; settings: Homo sapiens, SK-OV-3, 96 h, mean ± SD, n = 3 to 5, read-out: IC50, anti-proliferative activity
Description: (§3) To assess the effects of docetaxel and TH1902 on ovarian and endometrial cancer cell proliferation, cells (ES-2: 3000 cells/well, SKOV3: 1000 cells/well, A2780: 7000 cells/well, AN3-CA: 7000 cells/well) were first seeded in 96-well plates (Perkin Elmer, Guelph, ON, Canada), then treated with various concentrations of drugs in complete cell culture medium. After 72 h of incubation for ES-2, A2780 and AN3-CA cells, or 96 h for SKOV3 cells, cell proliferation was measured using the 3-(4,5-dimethylthiazol-2-yl)-2,5-diphenyltetrazolium bromide (MTT) as described previously. Analyses were made in quadruplicate for each condition.

ES-2 cells = test: Cell proliferation, MTT assay, ES-2; type: cell-based; settings: Homo sapiens, 72 h, mean ± SD, n = 3 to 5, read-out: IC50, anti-proliferative activity
Description: as §3

[3] = Mice weights, AN3-CA xenograft study; type: in vivo; settings: docetaxel high dose 15 mg/kg, reversed when dosage was halved
Description: (§4) Tumor xenografts were established by subcutaneous inoculation of 5 × 10^6 cells (ES-2) or 7 × 10^6 cells (SKOV3) in 150 µL of HBSS; other xenografts were established by subcutaneous inoculation of 5 × 10^6 cells (A2780) or 2 × 10^6 cells (AN3-CA) in 150 µL of HBSS/Matrigel (50:50). All cells were injected into the right flanks of immunodeficient mice under light isoflurane anesthesia. The injection schedules and doses of injected substances are detailed in the figures. Briefly, when palpable ES-2, SKOV3 or AN3-CA tumors reached a volume of ~100 mm^3, mice were treated weekly with either vehicle, docetaxel (3.75 or 15 mg/kg) or TH1902 (8.75 or 35 mg/kg) at equivalent docetaxel amounts via intravenous (IV) tail vein injection. Note that three cycles of 15 mg/kg docetaxel is the maximum tolerated dose in mice and that 35 mg/kg TH1902 contains the same quantity of docetaxel (bis-linked to the peptide). […] Tumor growth was monitored by two-dimensional measurements taken with an electronic caliper and tumor volume was calculated according to the following formula: tumor volume (mm^3) = π/6 × length × width^2. Data are expressed as mean ± SEM and were analyzed using GraphPad Prism software. […]

[4] = tested on: ES-2 ovarian cancer xenografts; test: ES-2 ovarian cancer xenograft tumor growth; type: in vivo, human tumor in female CD-1 nude mice; settings: for Tumor progression, Size Increase (x-Fold Day-0): vehicle group endpoint Day 18, n = 6 mice/group
From the text: as §1
Tumor xenografts were established by subcutaneous inoculation of 5 × 10^6 cells (ES-2) or 7 × 10^6 cells (SKOV3) in 150 µL of HBSS; other xenografts were established by subcutaneous inoculation of 5 × 10^6 cells (A2780) or 2 × 10^6 cells (AN3-CA) in 150 µL of HBSS/Matrigel (50:50). All cells were injected into the right flanks of immunodeficient mice under light isoflurane anesthesia. The injection schedules and doses of injected substances are detailed in the figures. […] Note that three cycles of 15 mg/kg docetaxel is the maximum tolerated dose in mice and that 35 mg/kg TH1902 contains the same quantity of docetaxel (bis-linked to the peptide). […] Tumor growth was monitored by two-dimensional measurements taken with an electronic caliper and tumor volume was calculated according to the following formula: tumor volume (mm^3) = π/6 × length × width^2. Data are expressed as mean ± SEM and were analyzed using GraphPad Prism software.
Figure 6 Effects of docetaxel and TH1902 on ES-2 and SKOV3 ovarian cancer xenografts. […] Immunodeficient mice bearing subcutaneous ES-2 (A) or SKOV3 (B) tumors were intravenously injected weekly with either vehicle, docetaxel (at its MTD and quarter MTD doses; 15 and 3.75 mg/kg, respectively), or TH1902 (at a dosage which contains a quantity of bound docetaxel equal to the docetaxel doses; 35 and 8.75 mg/kg, respectively), as described in the methods section. […]

[5] = mice; three (weekly) cycles; ref [31]; cited from earlier work
[6] = tested on: AN3-CA endometrial cancer xenografts; test: AN3-CA endometrial cancer xenograft tumor growth; type: in vivo, human tumor in female athymic nude mice; settings: for Tumor progression, Size Increase (x-Fold Day-0): vehicle group endpoint Day 14, n = 6 mice/group
From the text: as §1, §2

[7] = Mice weights, ES-2 xenograft study; type: in vivo; settings: ES-2 study
[8] = tested on: SKOV3 ovarian cancer xenografts; test: SKOV3 ovarian cancer xenograft tumor growth; type: in vivo, human tumor in female athymic nude mice; settings: for Tumor progression, Size Increase (x-Fold Day-0): vehicle endpoint Day 28, n = 6 mice/group
From the text: as §1
Tumor xenografts were established by subcutaneous inoculation of 5 × 10^6 cells (ES-2) or 7 × 10^6 cells (SKOV3) in 150 µL of HBSS; other xenografts were established by subcutaneous inoculation of 5 × 10^6 cells (A2780) or 2 × 10^6 cells (AN3-CA) in 150 µL of HBSS/Matrigel (50:50). All cells were injected into the right flanks of immunodeficient mice under light isoflurane anesthesia. The injection schedules and doses of injected substances are detailed in the figures. Briefly, when palpable ES-2, SKOV3 or AN3-CA tumors reached a volume of ~100 mm^3, mice were treated weekly with either vehicle, docetaxel (3.75 or 15 mg/kg) or TH1902 (8.75 or 35 mg/kg) at equivalent docetaxel amounts via intravenous (IV) tail vein injection. Note that three cycles of 15 mg/kg docetaxel is the maximum tolerated dose in mice and that 35 mg/kg TH1902 contains the same quantity of docetaxel (bis-linked to the peptide). In A2780 xenografts, when palpable tumors reached a volume of ~250 mm^3, mice were treated with either vehicle, paclitaxel (10 mg/kg, IV), carboplatin (40 mg/kg, intraperitoneal (IP)), docetaxel (10 mg/kg, IV) or TH1902 (23 mg/kg, IV) bi-weekly as single agents or once on Day-0 as combinations with carboplatin. […] Tumor growth was monitored by two-dimensional measurements taken with an electronic caliper and tumor volume was calculated according to the following formula: tumor volume (mm^3) = π/6 × length × width^2. Data are expressed as mean ± SEM and were analyzed using GraphPad Prism software.
Figure 6 Effects of docetaxel and TH1902 on ES-2 and SKOV3 ovarian cancer xenografts. […] Immunodeficient mice bearing subcutaneous ES-2 (A) or SKOV3 (B) tumors were intravenously injected weekly with either vehicle, docetaxel (at its MTD and quarter MTD doses; 15 and 3.75 mg/kg, respectively), or TH1902 (at a dosage which contains a quantity of bound docetaxel equal to the docetaxel doses; 35 and 8.75 mg/kg, respectively), as described in the methods section. Mice in the ES-2 study were euthanized at vehicle group endpoint (Day 18), whereas indicated groups in SKOV3 study were monitored for a prolonged period up to Day 46 post start of treatments.

A2780 cells = test: Cell proliferation, MTT assay, A2780; type: cell-based; settings: Homo sapiens, 72 h, mean ± SD, n = 3 to 5, read-out: IC50, anti-proliferative activity
Description: as §3

[9] = Mice weights, SKOV3 xenograft study; type: in vivo; settings: docetaxel 15 mg/kg, three weekly cycles
Description: as §4

[10] = Mice weights, A2780 xenograft study; type: in vivo; settings: docetaxel 10 mg/kg IV, three cycles
Description: as §4

[11] = single agent 40 mg/kg IP bi-weekly
[12] = single agent 10 mg/kg IV bi-weekly

N.N.O=C([O-])C1(C(=O)[O-])CCC1.[Pt+2] [Carboplatin, carboplatin]
Tumor growth inhibition [1, 11]: 38%
Tumor progression, Size Increase (x-Fold Day-0) [1, 11]: 4.21 x-Fold Day-0

CC(=O)O[C@@]12CO[C@@H]1C[C@H](O)[C@@]1(C)C(=O)[C@H](O)C3=C(C)[C@@H](OC(=O)[C@H](O)[C@@H](NC(=O)OC(C)(C)C)c4ccccc4)C[C@@](O)([C@@H](OC(=O)c4ccccc4)[C@H]21)C3(C)C [Docetaxel, docetaxel]
Water solubility [2]: very poor water solubility
Tumor growth inhibition [1, 12]: 43%
Tumor progression, Size Increase (x-Fold Day-0) [1, 12]: 4.13 x-Fold Day-0
IC50 (SKOV3 cells): 0.61 ± 0.1 nM
IC50 (ES-2 cells): 2.24 ± 0.99 nM
Body weight loss, in words [3]: Rapid weight loss
Tumor progression, Size Increase (x-Fold Day-0) ([4]; docetaxel 3.75 mg/kg IV weekly): 10.08 x-Fold Day-0
Tumor progression, Size Increase (x-Fold Day-0) ([4]; docetaxel 15 mg/kg IV weekly): 8.31 x-Fold Day-0
Effect on tumor growth ([4]; docetaxel, both 3.75 and 15 mg/kg IV weekly): produced little effect
Maximum tolerated dose [5]: 15 mg/kg
Tumor progression, Size Increase (x-Fold Day-0) ([6]; docetaxel 3.75 mg/kg IV weekly): 12.07 x-Fold Day-0
Tumor progression, Size Increase (x-Fold Day-0) ([6]; docetaxel 15 mg/kg IV weekly): 0.79 x-Fold Day-0
Tumor response on prolonged monitoring ([6]; docetaxel high dose 15 mg/kg (halved for final two treatments), before end of treatments): unresponsive and regrew before the end of treatments
Tumor regression ([6]; docetaxel high dose 15 mg/kg, vs vehicle endpoint): induced tumor regressions
Tolerability / body weight ([7]; docetaxel high dose 15 mg/kg, three weekly cycles, vs initial weight): small weight loss
Tolerability / body weight ([7]; docetaxel low dose 3.75 mg/kg weekly): well-tolerated with slight weight gain
Tumor progression, Size Increase (x-Fold Day-0) ([8]; docetaxel 3.75 mg/kg IV weekly): 9.70 x-Fold Day-0
Tumor progression, Size Increase (x-Fold Day-0) ([8]; docetaxel 15 mg/kg IV weekly): 2.25 x-Fold Day-0
Tumor regrowth on prolonged monitoring ([8]; docetaxel high dose 15 mg/kg, prolonged monitoring): could not sustain this effect, which is marked by tumor regrowth
Tumor growth inhibition ([8]; docetaxel high dose 15 mg/kg, vs vehicle endpoint Day 28): 84%
IC50 (A2780 cells): 1.76 ± 0.38 nM
Body weight loss [9]: > 10%
Body weight loss, in words [9]: severe weight loss
Body weight loss, in words [10]: significant body weight loss
